For the experiment, the target named is G-protein coupled receptor 151 (Homo sapiens) (UniProt Q8TDV0). Kind of experiment: GPR151 activator potency, dose response, cell-based (AID 1508610). The note with it: cell-based GPR151 activation reporter.

Active and inactive are the calls of the source. No rule for the calls is given here.

Chain of G-protein coupled receptor 151 (Homo sapiens) (Q8TDV0 whole entry, looked up): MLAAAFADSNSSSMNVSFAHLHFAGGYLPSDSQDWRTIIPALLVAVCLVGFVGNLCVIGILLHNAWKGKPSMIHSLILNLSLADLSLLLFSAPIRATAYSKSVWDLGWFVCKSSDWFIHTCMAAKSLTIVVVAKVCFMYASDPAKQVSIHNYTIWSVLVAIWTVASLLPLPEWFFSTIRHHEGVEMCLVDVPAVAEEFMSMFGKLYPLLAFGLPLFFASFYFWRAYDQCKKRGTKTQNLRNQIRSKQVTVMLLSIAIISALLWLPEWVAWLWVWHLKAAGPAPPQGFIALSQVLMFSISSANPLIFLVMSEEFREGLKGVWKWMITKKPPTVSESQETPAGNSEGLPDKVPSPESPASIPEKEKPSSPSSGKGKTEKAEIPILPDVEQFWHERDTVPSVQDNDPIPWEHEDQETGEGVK

In the case of `C/C=C/C(=O)N(CC)c1ccccc1C`, the EC50 was > 28.9 µM (inactive). The same measure for `COc1ccc2[nH]c(C)c(CCNCc3ccc(OC(F)(F)F)cc3)c2c1`: > 21.6 µM (inactive); for `Cc1nn(Cc2ccc(F)cc2)c(C)c1N`: > 28 µM (inactive); for `Cc1ccc(C(=O)CSc2[nH]c(=O)ncc2C)cc1`: > 28.6 µM (inactive). With `COc1ccc(-c2ccc(C(=O)NCc3cccnc3)s2)cc1` the figure was > 28.2 µM (inactive); with `O=C(Nc1nc2ccccc2[nH]1)c1ccc(Cl)cc1Cl`, > 29.3 µM (inactive). The same measure for `O=C(O)C1CCCN(c2nn3cc(-c4ccc(F)cc4)nc3s2)C1` (stereo unspecified): > 28 µM (inactive). As for `CC(C(=O)O)c1ccc(C(=O)c2ccccc2)s1` (stereo unspecified), the EC50 was > 28 µM (inactive). For the compound `O=C(Nc1nc2cc3c(cc2s1)OCO3)C1=COCCO1`, the EC50 is > 27.4 µM (inactive). As to `Cc1nc2nc(SCC(=O)N3CCOCC3)nn2c(C)c1Cc1ccccc1`, the EC50 is > 28 µM (inactive). For `CC1CC(=O)N(C)c2ccccc2S1` (stereo unspecified), the EC50 was > 28 µM (inactive). With `CCCN1C(=O)C[n+]2ccccc2C1C(=O)Nc1ccccc1C` (stereo unspecified) the figure was > 28 µM (inactive). The same measure for `O=C(Nc1ncc([N+](=O)[O-])s1)c1ccc(Br)cc1F`: > 27.5 µM (inactive). For the compound `Cc1ccc(C(=O)Nc2ncc([N+](=O)[O-])s2)cc1`, the EC50 is > 31.4 µM (inactive).

On to `CCN(CC)C(=O)Cn1cnc2sc(C(=O)Nc3cc(C)ccc3OC)c(C)c2c1=O`, for which the EC50 was > 25.7 µM (inactive). The same measure for `CCOCCOC(=O)C1=C(C)Nc2ccc(C)cc2S1`: > 28 µM (inactive). `COc1ccc(C[C@H](N)C(=O)N[C@@H]2[C@@H](CO)OC(n3cnc4c(N(C)C)ncnc43)[C@@H]2O)cc1` (stereo partly specified): the EC50 is > 28 µM (inactive). With `COC(=O)c1ccc(Cl)cc1NC(=O)N(C(C)C)C1CCN(C(C)=O)CC1` the figure was > 28 µM (inactive). The same measure for `Cc1ccc(CCNS(=O)(=O)c2ccc3c(c2)OCCN3C)cc1`: > 28 µM (inactive); for `CCN(CC)C(=O)C(=O)c1c(C)n(C)c2ccccc12`: > 28 µM (inactive).

For `COc1ccc(CCn2c(=S)[nH]c3cc(C(=O)N4CCOCC4)ccc3c2=O)cc1OC`, the EC50 was > 22.2 µM (inactive).

For `Nc1cccc(-c2nc3ccc(N)cc3s2)c1`, the EC50 was > 36 µM (inactive). Consider `CC(C)(C)OC(=O)NNC(=O)/C=C/c1cc(Br)ccc1F`, for which the EC50 was > 28.1 µM (inactive). For `COc1cc(C2NC(=O)NC(C)=C2C(C)=O)cc(Br)c1OCc1ccccc1` (stereo unspecified), the EC50 is > 28 µM (inactive). The same measure for `Cc1nc(NC(=O)CSc2ccc(-c3nc4ccccc4[nH]3)cn2)sc1C`: > 28 µM (inactive); for `COC(=O)c1ccc(Nc2ncnc3c2cnn3-c2ccc(C)cc2C)cc1`: 0.00158 µM.

Turning to `Cc1ccc(-c2nnc3sc(NC(=O)CC(C)C)nn23)cc1`, the EC50 was > 28 µM (inactive). The same measure for `C/C(=N\NC(=S)NCc1ccco1)c1cccc([N+](=O)[O-])c1`: > 28.2 µM (inactive). The same measure for `Cc1ccc(CNC(=O)c2c(C)cc(=O)oc2C)cc1`: > 28 µM (inactive); for `COc1ccc(/C=C/C(=O)Nc2ccccc2)cc1`: > 32.6 µM (inactive). With `[O-]/[N+](=C\c1ccncc1)c1ccc(Cl)cc1` the figure was > 28.9 µM (inactive). Take `COc1ccc(CCNC(=O)c2sc3nc(C)nc(N4CCCCC4)c3c2C)cc1OC`: the EC50 was > 27.6 µM (inactive). The same measure for `O=C(O)c1ccc2nc(-c3ccccc3)[nH]c2c1`: > 26.3 µM (inactive); for `CCOC(=O)c1cnc2c(OC)cccc2c1NC1CCCCC1`: “inactive”; for `O=c1c2ccccc2cnn1-c1nc2ccccc2[nH]1`: > 29.9 µM (inactive). The same measure for `COc1ccc2nccnc2c1[N+](=O)[O-]`: > 40 µM (inactive); for `CCC(C)NC(=O)C1=C(C)C(=O)OC12CCCCC2` (stereo unspecified): > 28 µM (inactive). The same measure for `CSC1=NSC2=NC(=O)/C(=C\c3ccc([N+](=O)[O-])cc3)C(=N)N12`: > 28 µM (inactive).

For the compound `O=C1[C@H]2[C@H]3[C@H](O)[C@H](O)C/C(=N\OCc4ccccc4)[C@H]3CC[C@H]2C(=O)N1C1CCCCC1`, the EC50 entry was “inactive”. With `COc1cc(CNc2ccc3ncc(-c4cnn(C)c4)n3n2)cc(OC)c1OC`, the EC50 was > 28 µM (inactive). With `O=C(O)c1cccc(NC(=O)c2ccc(Br)o2)c1` the figure was > 28 µM (inactive). With `CC(C)N1CCN(Cc2ccc(OC3CCCC3)cc2)CC1CCO` (stereo unspecified) the figure was 0.00143 µM; with `O=C(CCn1nc(-c2ccccc2)c2ccccc2c1=O)NCc1ccccc1`, > 28 µM (inactive); with `O=C1NC(c2ccc(Cl)cc2Cl)Oc2ccccc21` (stereo unspecified), > 28 µM (inactive).

For `COc1ccc(C2C3C(C)=NN=C3CC(C)(O)C2C(C)=O)cc1` (stereo unspecified), the EC50 entry is “inactive”. In the case of `COc1cccc(-c2ccc(=O)n(CC(=O)Nc3ccc(Cl)c(C(F)(F)F)c3)n2)c1`, the EC50 is > 28 µM (inactive). With `COc1ccc(-c2ccc(C(N)=O)s2)cc1` the figure was > 28.1 µM (inactive); with `COC(=O)c1cccc(NC(=O)c2cccc(Br)c2)c1C`, > 28 µM (inactive); with `COc1cccn2c(C(=O)Nc3ccc(Cl)cc3)c(C(F)(F)F)nc12`, > 28 µM (inactive). The same measure for `C/C(=N\NC(=O)Cn1nnc(-c2ccccc2)n1)c1nonc1C`: > 28 µM (inactive).

With `Cn1c(=O)[nH]c2nnc(-c3ccc(F)cc3)nc2c1=O`, the EC50 was > 28 µM (inactive). With `Cc1ccn2cc(-c3ccc(F)cc3)nc2c1` the figure was > 30.9 µM (inactive); with `Cc1cc(Br)ccc1Nc1nc(-c2ccccc2F)nc2ccccc12`, > 23.5 µM (inactive); with `CCCCCCOc1ccc(C(=O)O)cc1OC`, > 31.1 µM (inactive). The same measure for `Cc1ccc(N(CC(=O)NCCC2=CCCCC2)S(C)(=O)=O)cc1Cl`: > 28 µM (inactive); for `CC(C)c1ccc(Cn2ccc3c4c(N)nc(NC5CC5)nc4ccc32)cc1`: 3.86 µM.

`CCN(CC)c1ccc(NC(=O)/C=C\C(=O)O)cc1`: the EC50 was > 28 µM (inactive). With `COc1ccc(-c2ccc(C(=O)NCCO)s2)cn1` the figure was > 27.9 µM (inactive); with `Cc1cc2nc(-c3cccnc3Cl)[nH]c2cc1C`, > 26.1 µM (inactive). With `CC1(C)Cc2c(C#N)c(N3CCCC3)nc(-c3ccco3)c2CO1` the figure was > 28 µM (inactive). The same measure for `O=C1CCN(C(=O)c2ccc(-c3nc4ccccc4s3)s2)CC1`: > 29.5 µM (inactive); for `C=CCOC(=O)CCN1C(=O)c2ccccc2C1=O`: > 28 µM (inactive). For `COc1ccc2o/c(=N\NC(=O)c3ccccc3Nc3ccccc3)c(C(N)=O)cc2c1`, the EC50 is > 28 µM (inactive). With `CC(=O)Nc1ccc(Nc2ccnc(N3CCc4ccccc4C3)n2)cc1` the entry was “inactive”. With `O=C(Nc1noc2ccccc12)c1c(F)cccc1F` the figure was > 28 µM (inactive); with `COc1ccc(Cn2nccc2N)cc1OC`, > 28.8 µM (inactive). With `CCNc1nc(OC(C(F)(F)F)C(F)(F)F)nc(N2CCCCC2)n1` the figure was > 28 µM (inactive).

As to `CC(NC(=O)c1ccco1)c1nnc2n1CCN(Cc1cccc(F)c1)CC2` (stereo unspecified), the EC50 is > 28 µM (inactive). With `Cc1nc(/C=C/c2ccc(Cl)cc2)sc1C(=O)O` the figure was > 32 µM (inactive); with `CC1CCCCN1Cc1nc2c(c(=O)n(C)c(=O)n2C)n1CC(N)=O` (stereo unspecified), > 28 µM (inactive); with `Cc1ccc(C(=O)Nc2nc(Cl)c(C#N)s2)cc1`, > 28.2 µM (inactive).

In the case of `C=CCN1C(=O)/C(=C/c2ccc(Cl)cc2)C(=O)NC1=S`, the EC50 was > 28 µM (inactive). With `COc1ccc(-c2nc(C(=O)N3CCN(C)CC3)sc2-c2ccc(OC)cc2)cc1` the figure was > 11.2 µM (inactive); with `Cn1ncc2c(NCCc3ccc(Cl)cc3Cl)ncnc21`, > 27.8 µM (inactive). With `CCOCC(=O)NC12CC3CC(CC(C3)C1)C2` the figure was > 44.2 µM (inactive); with `COc1ccc(CCN2C(=O)c3ccc(Oc4ccc(Nc5ncnc6ccccc56)cc4)cc3C2=O)cc1OC`, 2.42 µM. The same measure for `O=S(=O)(NN=C1CCCCCC1)c1ccccc1`: > 28 µM (inactive). In the case of `C=CCN(c1ccc(C(=O)Nc2ccc(Cl)cc2)cc1)S(C)(=O)=O`, the EC50 was > 28 µM (inactive).

Take `O=C(Nc1ncc([N+](=O)[O-])s1)c1ccccc1F`: the EC50 is > 34 µM (inactive).

For `O=C1CCCN1CCn1cnc2c(NCCOc3ccccc3)nc(N3CCc4ccccc4C3)nc21`, the EC50 was > 27.9 µM (inactive). The same measure for `O=C1CC(c2ccc(O)cc2)Oc2ccccc21` (stereo unspecified): > 28 µM (inactive); for `CC(C)CC(C(=O)Nc1cccc([N+](=O)[O-])c1)N1C(=O)c2ccccc2C1=O` (stereo unspecified): > 28 µM (inactive); for `COc1ccc(CCNc2ccnc(Nc3ccc(-n4ccnc4)cc3)n2)cc1`: “inactive”. `O=C(NCCO)c1ccc(-c2ccc(N3CCOCC3)nc2)s1`: the EC50 is > 27 µM (inactive).

In the case of `O=C(O)CC1c2ccccc2CCN1S(=O)(=O)c1ccc(Cl)cc1` (stereo unspecified), the EC50 result was “inactive”.

`O=C(CCCOc1ccccc1)NNC(=O)c1ccccc1`: the EC50 is > 30.1 µM (inactive). On to `COCCNC(=O)/C(C#N)=C/C=C/c1ccccc1`, for which the EC50 is > 30.6 µM (inactive). The same measure for `CCOc1cc(NC(=O)C2CCCO2)c(OCC)cc1NC(C)=O` (stereo unspecified): > 9.34 µM (inactive); for `CC(C)CCN1C(=O)C(C)(C)COc2cc(NC(=O)c3ccc4c(c3)OCO4)ccc21`: > 28 µM (inactive); for `CCOC(=O)c1c(NC(=O)CN2CC(C)OC(C)C2)sc(C)c1C` (stereo unspecified): > 31.3 µM (inactive). The same measure for `COc1ccc(-c2nc(Nc3ccc(C)c(Cl)c3)c3ccccc3n2)cc1OC`: > 26.1 µM (inactive).

Broadly, the EC50 is the concentration at which the effect is half-maximal.

Values taken from PubChem BioAssay AID1508610 (The Scripps Research Institute Molecular Screening Center, 2020).
